Read-outs that look alike come from different tables or passages of the source.
Tests used:
human CB2 receptors = molecular target: T1, human CB2 receptors (Homo sapiens, UniProt P34972); test: functional cAMP assay, human CB2; assay type: cell-based
T1 construct: expressed in transfected cells; host or cells: CHO cells
Method: (§1) CHO cells expressing human CB1 or CB2 receptors are seeded 17-24 hours prior to the experiment 50.000 cells per well in a black 96 well plate with flat clear bottom (Corning Costar #3904) in DMEM (Invitrogen No. 31331), 1×HT supplement, with 10% fetal calf serum and incubated at 5% CO2 and 37° C. in a humidified incubator. The growth medium was exchanged with Krebs Ringer Bicarbonate buffer with 1 mM IBMX and incubated at 30° C. for 30 min. Compounds were added to a final assay volume of 100 μl and incubated for 30 min at 30° C. Using the cAMP-Nano-TRF detection kit the assay (Roche Diagnostics) was stopped by the addition of 50 μl lysis reagent (Tris, NaCl, 1.5% Triton X100, 2.5% NP40, 10% NaN3) and 50 μl detection solutions (20 μM mAb Alexa700-cAMP 1:1, and 48 μM Ruthenium-2-AHA-cAMP) and shaken for 2 h at room temperature. The time-resolved energy transfer is measured by a TRF reader (Evotec Technologies GmbH), equipped with a ND:YAG laser as excitation source. The plate is measured twice with the excitation at 355 nm and at the emission with a delay of 100 ns and a gate of 100 ns, total exposure time 10 s at 730 (bandwidth 30 nm) or 645 nm (bandwidth 75 nm), respectively. The FRET signal is calculated as follows: FRET=T730-Alexa730-P(T645-B645) with P=Ru730-B730/Ru645-B645, where T730 is the test well measured at 730 nM, T645 is the test well measured at 645 nm, B730 and B645 are the buffer controls at 730 nm and 645 nm, respectively. cAMP content is determined from the function of a standard curve spanning from 10 μM to 0.13 nM cAMP.
(§2) EC50 values were determined using Activity Base analysis (ID Business Solution, Limited). The EC50 values for a wide range of cannabinoid agonists generated from this assay were in agreement with the values published in the scientific literature.

human CB1 receptors = molecular target: T2, human CB1 receptors (Homo sapiens, UniProt P21554); test: functional cAMP assay, human CB1; assay type: cell-based
T2 construct: expressed in transfected cells; host or cells: CHO cells
T2 sequence (P21554 whole entry): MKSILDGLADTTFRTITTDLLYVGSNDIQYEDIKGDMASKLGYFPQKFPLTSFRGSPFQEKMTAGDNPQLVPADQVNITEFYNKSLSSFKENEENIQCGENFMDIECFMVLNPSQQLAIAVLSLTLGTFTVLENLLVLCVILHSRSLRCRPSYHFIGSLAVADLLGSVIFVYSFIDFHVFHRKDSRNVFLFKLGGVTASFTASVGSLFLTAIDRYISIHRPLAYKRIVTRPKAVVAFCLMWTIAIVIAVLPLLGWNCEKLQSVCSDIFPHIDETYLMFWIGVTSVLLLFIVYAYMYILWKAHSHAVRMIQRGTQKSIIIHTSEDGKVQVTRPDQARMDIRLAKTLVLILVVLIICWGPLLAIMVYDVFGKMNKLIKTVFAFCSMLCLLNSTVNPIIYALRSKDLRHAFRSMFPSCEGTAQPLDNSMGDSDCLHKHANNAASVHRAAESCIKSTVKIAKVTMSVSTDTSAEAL
Method: as §1, §2

[1] = CHO cells expressing human CB2, cAMP, read-out: human CB2 EC50
[2] = CHO cells expressing human CB1, cAMP, read-out: human CB1 EC50

T1 sequence (P34972 whole entry): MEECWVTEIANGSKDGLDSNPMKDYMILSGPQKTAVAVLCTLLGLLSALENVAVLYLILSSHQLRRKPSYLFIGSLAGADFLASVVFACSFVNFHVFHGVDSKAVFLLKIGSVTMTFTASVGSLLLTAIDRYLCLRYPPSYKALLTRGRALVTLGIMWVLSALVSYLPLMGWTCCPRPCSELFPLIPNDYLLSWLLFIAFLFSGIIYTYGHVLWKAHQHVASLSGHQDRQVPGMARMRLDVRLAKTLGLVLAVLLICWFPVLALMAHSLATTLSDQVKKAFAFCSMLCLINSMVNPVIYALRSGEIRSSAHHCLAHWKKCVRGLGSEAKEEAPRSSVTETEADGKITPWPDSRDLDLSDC

EC50 (human CB2 receptors) [µM]	EC50 (human CB1 receptors) [µM]	Structure (SMILES)	EC50 (human CB2 receptors; [1]) [µM]	EC50 (human CB1 receptors; [2]) [µM]
		CC(C)(C)c1nc(N2CC[C@](C)(O)C2)c2nnn(Cc3ccccc3C(F)(F)F)c2n1 [Example 222-a, (S)-1-(5-tert-butyl-3-(2-(trifluoromethyl)benzyl)-3H-[1,2,3]triazolo[4,5-d]pyrimidin-7-yl)-3-methylpyrrolidin-3-ol]	0.0008	0.894
		CC(C)(C)c1nc(N2CC[C@@](C)(O)C2)c2nnn(CCC(F)(F)F)c2n1 [Example 229-b, (R)-1-(5-tert-butyl-3-(3,3,3-trifluoropropyl)-3H-[1,2,3]triazolo[4,5-d]pyrimidin-7-yl)-3-methylpyrrolidin-3-ol]	0.0374	> 10
		CC1(O)CCN(c2nc(C(C)(C)C)nc3c2nnn3Cc2ccccc2Cl)C1 (stereo not shown) [Example 54, 1-[5-tert-Butyl-3-(2-chloro-benzyl)-3H-[1,2,3]triazolo[4,5-d]pyrimidin-7-yl]-3-methyl-pyrrolidin-3-ol]	0.0028	> 10
		CC(C)(C)c1nc(N2CCC(F)(F)C2)c2nnn(CC(=O)c3ccccn3)c2n1 [Example 127, 2-[5-tert-Butyl-7-(3,3-difluoro-pyrrolidin-1-yl)-[1,2,3]triazolo[4,5-d]pyrimidin-3-yl]-1-pyridin-2-yl-ethanone]	0.0004	> 10
		CC(C)(C)c1nc(N2CCC(F)(F)C2)c2nnn(CCc3ccccn3)c2n1 [Example 113, 5-tert-Butyl-7-(3,3-difluoro-pyrrolidin-1-yl)-3-(2-pyridin-2-yl-ethyl)-3H-[1,2,3]triazolo[4,5-d]pyrimidine]	0.0002	0.201
		CC(=O)N[C@H]1CCN(c2nc(C(C)(C)C)nc3c2nnn3Cc2ccccc2Cl)C1 [Example 192, N-{(S)-1-[5-tert-Butyl-3-(2-chloro-benzyl)-3H-[1,2,3]triazolo[4,5-d]pyrimidin-7-yl]-pyrrolidin-3-yl}-acetamide]	0.022	> 10
		CC(C)(C)c1nc(N2C[C@@H](O)C[C@@H]2CO)c2nnn(Cc3ccccc3Cl)c2n1 [Example 93, (3S,5R)-1-[5-tert-Butyl-3-(2-chloro-benzyl)-3H-[1,2,3]triazolo[4,5-d]pyrimidin-7-yl]-5-hydroxymethyl-pyrrolidin-3-ol]	0.0045	> 10
		CC1CCN(c2nc(C(C)(C)C)nc3c2nnn3Cc2ccccc2Cl)C1 (stereo not shown) [Example 198, 5-tert-Butyl-3-(2-chloro-benzyl)-7-(3-methyl-pyrrolidin-1-yl)-3H-[1,2,3]triazolo[4,5-d]pyrimidine]	0.0128	1.71
		Cc1noc(Cn2nnc3c(N4CC[C@H](O)C4)nc(C(C)(C)C)nc32)n1 [Example 137, (S)-1-[5-tert-Butyl-3-(3-methyl-[1,2,4]oxadiazol-5-ylmethyl)-3H-[1,2,3]triazolo[4,5-d]pyrimidin-7-yl]-pyrrolidin-3-ol]	0.0182	> 10
		C[C@H](c1ccccc1Cl)n1nnc2c(N3CCC(F)(F)C3)nc(C(C)(C)C)nc21 [Example 86]	0.0004	0.371
		CC(C)(C)c1nc(N2CC[C@H](O)[C@@H]2CO)c2nnn(Cc3ccccc3Cl)c2n1 [Example 51, (2S,3S)-1-[5-tert-Butyl-3-(2-chloro-benzyl)-3H-[1,2,3]triazolo[4,5-d]pyrimidin-7-yl]-2-hydroxymethyl-pyrrolidin-3-ol]	0.0024	> 10
		CC(C)(C)c1nc(N2CCC(F)(F)C2)c2nnn(Cc3ccccc3Br)c2n1 [Example 79, 3-(2-Bromo-benzyl)-5-tert-butyl-7-(3,3-difluoro-pyrrolidin-1-yl)-3H-[1,2,3]triazolo[4,5-d]pyrimidine]	0.0001	0.0823
0.0047	> 10	Cn1nnnc1Cn1nnc2c(N3CCC(O)C3)nc(C(C)(C)C)nc21 (stereo not shown) [Example 220, 1-(5-tert-butyl-3-((1-methyl-1H-tetrazol-5-yl)methyl)-3H-[1,2,3]triazolo[4,5-d]pyrimidin-7-yl)pyrrolidin-3-ol]		
		CC(C)(C)c1nc(N2CCC(F)(F)C2)c2nnn(Cc3ncccc3Cl)c2n1 [Example 98, 5-tert-Butyl-3-(3-chloro-pyridin-2-ylmethyl)-7-(3,3-difluoro-pyrrolidin-1-yl)-3H-[1,2,3]triazolo[4,5-d]pyrimidine]	0.0001	0.098
		CC(C)(C)c1nc(N2CC[C@@](C)(O)C2)c2nnn(Cc3ncccc3Cl)c2n1 [Example 224-b, (R)-1-(5-tert-butyl-3-((3-chloropyridin-2-yl)methyl)-3H-[1,2,3]triazolo[4,5-d]pyrimidin-7-yl)-3-methylpyrrolidin-3-ol]	0.0064	> 10
		Cc1nnc(Cn2nnc3c(N4CCC(F)(F)C4)nc(C(C)(C)C)nc32)n1C [Example 146, 5-tert-Butyl-7-(3,3-difluoro-pyrrolidin-1-yl)-3-(4,5-dimethyl-4H-[1,2,4]triazol-3-ylmethyl)-3H-[1,2,3]triazolo[4,5-d]pyrimidine]	0.0005	> 10
		CC(C)(C)c1nc(N2CCC(=O)C2)c2nnn(Cc3ccccc3Cl)c2n1 [Example 188, 1-[5-tert-Butyl-3-(2-chloro-benzyl)-3H-[1,2,3]triazolo[4,5-d]pyrimidin-7-yl]-pyrrolidin-3-one]	0.001	> 10
		Cn1nnnc1Cn1nnc2c(N3CC(F)(F)C(F)(F)C3)nc(C(C)(C)C)nc21 [Example 176, 5-tert-Butyl-3-(1-methyl-1H-tetrazol-5-ylmethyl)-7-(3,3,4,4-tetrafluoro-pyrrolidin-1-yl)-3H-[1,2,3]triazolo[4,5-d]pyrimidine]	0.0005	2
		CC(C)(C)c1nc(N2CC[C@H](O)C2)c2nnn(Cc3nccc(Cl)c3Cl)c2n1 [Example 148, (S)-1-[5-tert-Butyl-3-(3,4-dichloro-pyridin-2-ylmethyl)-3H-[1,2,3]triazolo[4,5-d]pyrimidin-7-yl]-pyrrolidin-3-ol]	0.0004	> 10
		COC[C@@H]1CCCN1c1nc(C(C)(C)C)nc2c1nnn2Cc1ccccc1Cl [Example 45, 5-tert-Butyl-3-(2-chloro-benzyl)-7-((S)-2-methoxymethyl-pyrrolidin-1-yl)-3H-[1,2,3]triazolo[4,5-d]pyrimidine]	0.0522	> 10
		CC(C)(C)c1nc(N2CC[C@H](O)C2)c2nnn(Cc3nnnn3C3CC3)c2n1 [Example 160, (S)-1-[5-tert-Butyl-3-(1-cyclopropyl-1H-tetrazol-5-ylmethyl)-3H-[1,2,3]triazolo[4,5-d]pyrimidin-7-yl]-pyrrolidin-3-ol]	0.0007	> 10
		COC1CN(c2nc(C(C)(C)C)nc3c2nnn3Cc2ccccc2Cl)C1 [Example 15, 5-tert-Butyl-3-(2-chloro-benzyl)-7-(3-methoxy-azetidin-1-yl)-3H-[1,2,3]triazolo[4,5-d]pyrimidine]	0.0032	0.97
		CC(C)(C)c1nc(N2CCC(F)(F)C2)c2nnn(Cc3cccc(Cl)c3Cl)c2n1 [Example 67, 5-tert-Butyl-3-(2,3-dichloro-benzyl)-7-(3,3-difluoro-pyrrolidin-1-yl)-3H-[1,2,3]triazolo[4,5-d]pyrimidine]	0.0002	0.163
0.0014	> 10	Cn1nnnc1Cn1nnc2c(N3CC[C@H](O)C3)nc(C(C)(C)C)nc21 [Example 151, (S)-1-[5-tert-Butyl-3-(1-methyl-1H-tetrazol-5-ylmethyl)-3H-[1,2,3]triazolo[4,5-d]pyrimidin-7-yl]-pyrrolidin-3-ol]		
		CC(C)(C)c1nc(N2C[C@@H](O)C(F)(F)C2)c2nnn(Cc3ccccc3Cl)c2n1 [Example 95, (R)-1-[5-tert-Butyl-3-(2-chloro-benzyl)-3H-[1,2,3]triazolo[4,5-d]pyrimidin-7-yl]-4,4-difluoro-pyrrolidin-3-ol]	0.0015	
		CC(C)(C)c1nc(N2CCC(F)(F)C2)c2nnn(C(=O)c3ccccc3Cl)c2n1 [Example 92, [5-tert-Butyl-7-(3,3-difluoro-pyrrolidin-1-yl)-[1,2,3]triazolo[4,5-d]pyrimidin-3-yl]-(2-chloro-phenyl)-methanone]	0.35	
		CC(C)(C)c1nc(N2CCC(F)(F)C2)c2nnn(C3COC3)c2n1 [Example 91, 5-tert-Butyl-7-(3,3-difluoro-pyrrolidin-1-yl)-3-oxetan-3-yl-3H-[1,2,3]triazolo[4,5-d]pyrimidine]	0.0003	
		CC(C)(C)c1nc(N2CCC(F)(F)C2)c2nnn(S(=O)(=O)c3ccccc3Cl)c2n1 [Example 107, 5-tert-Butyl-3-(2-chloro-benzenesulfonyl)-7-(3,3-difluoro-pyrrolidin-1-yl)-3H-[1,2,3]triazolo[4,5-d]pyrimidine]	0.284	

From patent publication US8741906B2 (priority 2011, dated 2014)
